Measurements reported in US12616697B2, “Methods of treatment with myosin modulator” (MyoKardia, Inc., priority 2020, dated 2026).
Values joined by “and” are separate entries in the source; they are usually repeats but may differ in a detail not shown here. Equal entries are not always repeated.

Key:
[1] = test system: adults with symptomatic oHCM; assay: PIONEER-OLE Phase 2 open-label extension study of mavacamten; assay type: in vivo
Method: All subjects were started on a dose of 5 mg QD.
To maximize safety, the starting dose will be 5 mg for all subjects. Subjects will return at Week 4 (±4 days) for a plasma PK sample to measure drug levels and to undergo echocardiography to determine LVOT gradient (at rest, after a Valsalva maneuver, and after exercise) and left ventricular ejection fraction (LVEF).
After Week 6, additional study visits will occur at Week 8 (±7 days), Week 12 (±7 days), and every 12 weeks (±7 days) thereafter. Subjects also will be contacted by phone in between clinic visits, at Week 18 and every 12 weeks thereafter. An end of study (EOS) visit will occur 12 weeks (±7 days) after the last administration of study drug. Visits (including the Screening visit which serves as the baseline) will entail recording vital signs, targeted physical examination, ECGs, safety laboratory tests, N-terminal pro b-type natriuretic peptide (NT-proBNP), adverse events (AEs), New York Heart Association (NYHA) functional class, Kansas City Cardiomyopathy Questionnaire (KCCQ) score, and concomitant medications. At Weeks 4, 8, 24, 36, 48, 60, 72, 96, 120, 144, 156/early termination (ET), and 168/EOS, a predose blood sample for assessment of drug concentration will be obtained. A standard TTE (including but not limited to assessment of LVOT gradient at rest and after Valsalva) will be performed at baseline, at Weeks 4, 8, 12, 24, 36, 48, 72, 96, 120, 144, 156/ET, and 168/EOS. In addition, a stress echocardiogram (with assessment of LVOT gradient post-exercise) will also be performed at baseline, Weeks 4, 48, 72, 156/ET, and 168/EOS.
The study endpoints include safety, tolerability, and select measures of efficacy using individualized dosing. Key measurements include LVOT gradient, LVEF, NT-proBNP.
• 1. Frequency and severity of treatment-emergent AEs and SAEs, • 2. Frequency of cardiovascular (CV) death, • 3. Frequency of sudden death, • 4. Frequency of CV hospitalization, • 5. Frequency of heart failure requiring the initiation of oral loop diuretics or the administration of intravenous loop diuretics, • 6. Frequency of myocardial infarction, • 7. Frequency of ventricular arrhythmias (ventricular tachycardia, ventricular fibrillation, ventricular flutter, torsade de pointe), • 8. Frequency of syncope, • 9. Frequency of seizures, • 10. Frequency of stroke, • 11. Frequency of LVEF≤45 as measured by echocardiography, • 12. QT and QTcF intervals over time. Efficacy and Pharmacodynamics Include: • 1. Post-exercise, post-Valsalva, and resting LVOT gradient over time, • 2. NYHA functional class over time, • 3. KCCQ scores over time, • 4. NT-proBNP over time, • 5. Frequency of septal reduction therapy.

[2] = test system: conscious fully-instrumented dogs with normal cardiac function; assay: Cardiac reserve under acute β-AR (dobutamine) challenges in conscious instrumented dogs; assay type: in vivo, dog
Method: In addition, the effects of MAVA (at 1.5 mg/kg PO, via gavage) on cardiac reserve were evaluated via acute β-AR challenges (dobutamime: 2, 5, and 10 ug/kg/min IV) in conscious fully-instrumented (LVPV group) dogs with normal cardiac function (n=8). These challenges were performed before/after dosing (+3-hour) in control- and MAVA-treated animals both under normal cardiac physiological conditions (n=4) and under (mild) concomitant cardio-depression induced via either selective β-AR blockade (+BB, metoprolol 0.5±0.1 mg/kg PO tid; n=4) or L-type Ca2+-channel blockade (+CCB, verapamil at 5±1 mg/kg PO tid; n=4); pharmacological blockades were established for 7 days prior to the MAVA treatment. Both peak and dose-responses were evaluated at steady state.
Throughout these experiments, analog signals were digitally acquired (1000 Hz) and recorded continuously with a data acquisition/analysis system (IOX; EMKA Technologies). Heart rate (HR), end-systolic (ESP) and end-diastolic pressures (EDP), as well as the peak rates of pressure rise/decline (dP/dtmax and dP/dtmin), the contractility index (CI: dP/dt/P at dP/dtmax), and the time-constant of myocardial relaxation (tau1/2, time for 50% decay from dP/dtmin) were derived from the LV pressure signal. Meanwhile, the end-systolic (ESV) and end-diastolic volumes (EDV) were measured from the LV volume signal derived from the implanted myocardial crystals. LV volumes were derived assuming a Teichholz model, and stroke volume (SV=EDV−ESV), ejection fraction (EF=SV/EDV), as well as cardiac output (CO=SV·HR) were calculated; in a subset of animals, SV and CO values were verified from data derived from the implanted aortic flow […]. […] The slopes of the preload-recruitable stroke work (PRSW; stroke work vs. EDV) and the end-systolic pressure-volume relationships (ESPVR; end-systolic elastance, Ees) were derived by software using linear models (IOX; EMKA Technologies), and were used as load-independent inotropic indices. Ventricular load was estimated by the effective arterial elastance (Ea=ESP/SV). […]

CC(C)n1c(=O)cc(N[C@@H](C)c2ccccc2)[nH]c1=O [mavacamten, (S)-3-Isopropyl-6-((1-phenylethyl)amino)pyrimidine-2, 4(1H,3H)-dione]
cardiac-related adverse events attributed to study drug ([1]; 48-week period): no cardiac-related adverse events (AEs) attributed to study drug | E/e′ lateral, mean ([1]; Change from Baseline to Week 48): −3.4 | E/e′ lateral, mean ([1]; Week 12): 9.8 | IVS (interventricular septal thickness), mean ([1]; Week 12): 16.0 mm | IVS (interventricular septal thickness), mean ([1]; Week 12, listed as Mavacamten): 15.9 ± 2.7 mm | E/e′ lateral, mean ([1]; Week 24): 10.2 | IVS (interventricular septal thickness), mean ([1]; Week 24): 15.8 mm | IVS (interventricular septal thickness), mean ([1]; Week 24, listed as Mavacamten): 15.8 ± 2.7 mm | E/e′ lateral, mean ([1]; Week 36): 8.5 | IVS (interventricular septal thickness), mean ([1]; Week 36): 15.4 mm | IVS (interventricular septal thickness), mean ([1]; Week 36, listed as Mavacamten): 15.4 ± 2.7 mm | E/e′ lateral, mean ([1]; Week 48): 9.1 | IVS (interventricular septal thickness), mean ([1]; Week 48): 15 mm and 15.3 mm | IVS (interventricular septal thickness), mean change from baseline ([1]; Week 48): −1.5 mm | LVEF, mean change from baseline ([1]; Week 48): −1.8% | NT-proBNP, median ([1]; Week 48): 136.5 pg/mL | patients who achieved a post-exercise LVOT gradient <30 mm Hg ([1]; Week 48): Five | IVS (interventricular septal thickness), mean ([1]; Week 48, listed as Mavacamten): 15.5 ± 2.0 mm | IVS (interventricular septal thickness), mean change from baseline ([1]; Week 48, listed as Mavacamten): −1.2 mm and −1.2 ± 2.3 mm | median NT-proBNP, change from baseline ([1]; Week 60): -481 pg/mL | LVEF maintained ([1]; all patients at all timepoints): above 50% | AEs considered potentially related to study drug ([1]; in 3 subjects, 7 mild, 1 moderate): 8 | β-AR induced acceleration of tau ([2]; at any given dP/dtmax gain): enhanced | β-AR elevations in dP/dtmax and CI ([2]; dobutamine challenge, MAVA 1.5 mg/kg PO): blunted
